Data on 5 compounds can be found in patent US20250084061A1, “SULFONYL FUNCTIONAL COMPOUND, METHODS AND USES THEREOF” (Hubei Biopesticide Engineering Research Centre, priority 2023, published 2025).

In one data set the test system is Heliothis armigera. The data set can be described thus: Insecticidal activity, artificial feed surface coating method. Format: in vivo. Particulars: 125 mg/L test solution. The method, then: (§1) The insecticidal activity of sulfonyl functional compounds in the above embodiments were tested for agricultural biological functions, and the targets of insecticidal activity were Heliothis armigera, Plutella xylostella and Aphiscraccivora.
(§2) Using Heliothis armigera and Plutella xylostella as target, the insecticidal activities of sulfonyl functional compounds were tested by conventional artificial feed surface coating method. 300 microliters of artificial feed and 20 microliters of test solution were added to each well of the 24-well cell culture plate. The test solution was used in different concentrations and repeated twice (Rep1 and Rep2). The concentrations of the test solution were 500 mg/L, 250 mg/L and 125 mg/L, respectively.
(§3) The insecticidal activity of sulfonyl functional compounds against Aphiscraccivora was tested by the method of dipping. Mother liquors were prepared by the sulfonyl functional compounds provided in the above embodiments dissolved in ethanol, respectively. 500 mg/L, 250 mg/L or 125 mg/L test solution could be prepared by diluting the different mother liquors with a liquor that contained 0.1 mL/L of emulgator (Tween-80). Every test solution was tested twice (Rep1 and Rep2). A blank control was set up, and the activity results were compared with the blank control. The mortality rate of 0˜30%, 30˜50%, 50-70%, 70˜90%, or 90˜100% could be orderly set as 0, 3, 5, 7, or 9.
For the compound `CCC(=O)N1N=C(C)CN(N=Cc2ccc[n+](CCCS(=O)(=O)[O-])c2)C1=O` [IV-5], the “Insecticidal activity (mortality rate grade) Heliothis armigera” value is listed as 0 (mortality rate of 0˜30%).
Still for that read-out and setting: the result for `CC(=O)N1N=C(C)CN(N=Cc2ccc[n+](CC=CS(=O)(=O)[O-])c2)C1=O` [IV-6] reads 0 (mortality rate of 0˜30%); that for `CCC(=O)N1N=C(C)CN(N=Cc2ccc[n+](CC=CS(=O)(=O)[O-])c2)C1=O` [IV-7], 0 (mortality rate of 0˜30%); that for `CC(=O)N1N=C(C)CN(N=Cc2ccc[n+](CCCCS(=O)(=O)[O-])c2)C1=O` [IV-8], 0 (mortality rate of 0˜30%).
Regarding `CCC(=O)N1N=C(C)CN(N=Cc2ccc[n+](CCCCS(=O)(=O)[O-])c2)C1=O` [IV-9], the “Insecticidal activity (mortality rate grade) Heliothis armigera” value is 0 (mortality rate of 0˜30%).

Still in this data set, the particulars now being: 250 mg/L test solution.
With `CCC(=O)N1N=C(C)CN(N=Cc2ccc[n+](CCCS(=O)(=O)[O-])c2)C1=O` [IV-5], the “Insecticidal activity (mortality rate grade) Heliothis armigera” value is listed as 0 (mortality rate of 0˜30%).
As for `CC(=O)N1N=C(C)CN(N=Cc2ccc[n+](CC=CS(=O)(=O)[O-])c2)C1=O` [IV-6], the “Insecticidal activity (mortality rate grade) Heliothis armigera” value is 3 (30˜50%).
On to `CCC(=O)N1N=C(C)CN(N=Cc2ccc[n+](CC=CS(=O)(=O)[O-])c2)C1=O` [IV-7], for which the “Insecticidal activity (mortality rate grade) Heliothis armigera” value is reported as 0 (mortality rate of 0˜30%).
On to `CC(=O)N1N=C(C)CN(N=Cc2ccc[n+](CCCCS(=O)(=O)[O-])c2)C1=O` [IV-8], for which the “Insecticidal activity (mortality rate grade) Heliothis armigera” value is on record as 0 (mortality rate of 0˜30%).
As for `CCC(=O)N1N=C(C)CN(N=Cc2ccc[n+](CCCCS(=O)(=O)[O-])c2)C1=O` [IV-9], the “Insecticidal activity (mortality rate grade) Heliothis armigera” value is 0 (mortality rate of 0˜30%).

The same data set, now with this note: 500 mg/L test solution.
`CCC(=O)N1N=C(C)CN(N=Cc2ccc[n+](CCCS(=O)(=O)[O-])c2)C1=O` [IV-5]: the “Insecticidal activity (mortality rate grade) Heliothis armigera” value is 0 (mortality rate of 0˜30%).
With `CC(=O)N1N=C(C)CN(N=Cc2ccc[n+](CC=CS(=O)(=O)[O-])c2)C1=O` [IV-6], the “Insecticidal activity (mortality rate grade) Heliothis armigera” value was 3 (30˜50%).
Regarding `CCC(=O)N1N=C(C)CN(N=Cc2ccc[n+](CC=CS(=O)(=O)[O-])c2)C1=O` [IV-7], the “Insecticidal activity (mortality rate grade) Heliothis armigera” value is reported as 0 (mortality rate of 0˜30%).
With `CC(=O)N1N=C(C)CN(N=Cc2ccc[n+](CCCCS(=O)(=O)[O-])c2)C1=O` [IV-8], the “Insecticidal activity (mortality rate grade) Heliothis armigera” value is reported as 0 (mortality rate of 0˜30%).
Take `CCC(=O)N1N=C(C)CN(N=Cc2ccc[n+](CCCCS(=O)(=O)[O-])c2)C1=O` [IV-9]: the “Insecticidal activity (mortality rate grade) Heliothis armigera” value is reported as 0 (mortality rate of 0˜30%).

The subject of another data set is Plutella xylostella. The description is as above. Format: in vivo. Particulars: 125 mg/L test solution. The protocol: as §1, §2, §3
As for `CCC(=O)N1N=C(C)CN(N=Cc2ccc[n+](CCCS(=O)(=O)[O-])c2)C1=O` [IV-5], the “Insecticidal activity (mortality rate grade) Plutella xylostella” value was 0 (mortality rate of 0˜30%).
The same measure, in the same setting: to `CC(=O)N1N=C(C)CN(N=Cc2ccc[n+](CC=CS(=O)(=O)[O-])c2)C1=O` [IV-6] belongs 0 (mortality rate of 0˜30%).
For the compound `CCC(=O)N1N=C(C)CN(N=Cc2ccc[n+](CC=CS(=O)(=O)[O-])c2)C1=O` [IV-7], the “Insecticidal activity (mortality rate grade) Plutella xylostella” value is reported as 0 (mortality rate of 0˜30%).
`CC(=O)N1N=C(C)CN(N=Cc2ccc[n+](CCCCS(=O)(=O)[O-])c2)C1=O` [IV-8]: the “Insecticidal activity (mortality rate grade) Plutella xylostella” value is 0 (mortality rate of 0˜30%).
As for `CCC(=O)N1N=C(C)CN(N=Cc2ccc[n+](CCCCS(=O)(=O)[O-])c2)C1=O` [IV-9], the “Insecticidal activity (mortality rate grade) Plutella xylostella” value was 0 (mortality rate of 0˜30%).

Staying with this data set, now noted: 250 mg/L test solution.
For `CCC(=O)N1N=C(C)CN(N=Cc2ccc[n+](CCCS(=O)(=O)[O-])c2)C1=O` [IV-5], the “Insecticidal activity (mortality rate grade) Plutella xylostella” value was 0 (mortality rate of 0˜30%).
On to `CC(=O)N1N=C(C)CN(N=Cc2ccc[n+](CC=CS(=O)(=O)[O-])c2)C1=O` [IV-6], for which the “Insecticidal activity (mortality rate grade) Plutella xylostella” value was 3 (30˜50%).
Same read-out and setting: to `CCC(=O)N1N=C(C)CN(N=Cc2ccc[n+](CC=CS(=O)(=O)[O-])c2)C1=O` [IV-7] belongs 0 (mortality rate of 0˜30%).
Still for that read-out and setting: to `CC(=O)N1N=C(C)CN(N=Cc2ccc[n+](CCCCS(=O)(=O)[O-])c2)C1=O` [IV-8] belongs 3 (30˜50%).
With `CCC(=O)N1N=C(C)CN(N=Cc2ccc[n+](CCCCS(=O)(=O)[O-])c2)C1=O` [IV-9], the “Insecticidal activity (mortality rate grade) Plutella xylostella” value is given as 0 (mortality rate of 0˜30%).

Still in this data set, the particulars now being: 500 mg/L test solution.
In the case of `CCC(=O)N1N=C(C)CN(N=Cc2ccc[n+](CCCS(=O)(=O)[O-])c2)C1=O` [IV-5], the “Insecticidal activity (mortality rate grade) Plutella xylostella” value is 3 (30˜50%).
Consider `CC(=O)N1N=C(C)CN(N=Cc2ccc[n+](CC=CS(=O)(=O)[O-])c2)C1=O` [IV-6], for which the “Insecticidal activity (mortality rate grade) Plutella xylostella” value is recorded as 5 (50-70%).
The same measure, in the same setting: to `CCC(=O)N1N=C(C)CN(N=Cc2ccc[n+](CC=CS(=O)(=O)[O-])c2)C1=O` [IV-7] belongs 3 (30˜50%); to `CC(=O)N1N=C(C)CN(N=Cc2ccc[n+](CCCCS(=O)(=O)[O-])c2)C1=O` [IV-8], 3 (30˜50%); to `CCC(=O)N1N=C(C)CN(N=Cc2ccc[n+](CCCCS(=O)(=O)[O-])c2)C1=O` [IV-9], 3 (30˜50%).

A further data set has as its system Aphiscraccivora. The data set can be described thus: Insecticidal activity, dipping method. It counts as in vivo. Conditions: 125 mg/L test solution. The method, then: as §1, §3
Regarding `CCC(=O)N1N=C(C)CN(N=Cc2ccc[n+](CCCS(=O)(=O)[O-])c2)C1=O` [IV-5], the “Insecticidal activity (mortality rate grade) Aphiscraccivora” value was 7 (70˜90%).
Turning to `CC(=O)N1N=C(C)CN(N=Cc2ccc[n+](CC=CS(=O)(=O)[O-])c2)C1=O` [IV-6], the “Insecticidal activity (mortality rate grade) Aphiscraccivora” value was 5 (50-70%).
Regarding `CCC(=O)N1N=C(C)CN(N=Cc2ccc[n+](CC=CS(=O)(=O)[O-])c2)C1=O` [IV-7], the “Insecticidal activity (mortality rate grade) Aphiscraccivora” value is on record as 5 (50-70%).
For `CC(=O)N1N=C(C)CN(N=Cc2ccc[n+](CCCCS(=O)(=O)[O-])c2)C1=O` [IV-8], the “Insecticidal activity (mortality rate grade) Aphiscraccivora” value is listed as 9 (90˜100%).
`CCC(=O)N1N=C(C)CN(N=Cc2ccc[n+](CCCCS(=O)(=O)[O-])c2)C1=O` [IV-9]: the “Insecticidal activity (mortality rate grade) Aphiscraccivora” value was 7 (70˜90%).

The same data set, now with this note: 250 mg/L test solution.
In the case of `CCC(=O)N1N=C(C)CN(N=Cc2ccc[n+](CCCS(=O)(=O)[O-])c2)C1=O` [IV-5], the “Insecticidal activity (mortality rate grade) Aphiscraccivora” value was 7 (70˜90%).
As to `CC(=O)N1N=C(C)CN(N=Cc2ccc[n+](CC=CS(=O)(=O)[O-])c2)C1=O` [IV-6], the “Insecticidal activity (mortality rate grade) Aphiscraccivora” value is listed as 9 (90˜100%).
`CCC(=O)N1N=C(C)CN(N=Cc2ccc[n+](CC=CS(=O)(=O)[O-])c2)C1=O` [IV-7]: the “Insecticidal activity (mortality rate grade) Aphiscraccivora” value is given as 7 (70˜90%).
On to `CC(=O)N1N=C(C)CN(N=Cc2ccc[n+](CCCCS(=O)(=O)[O-])c2)C1=O` [IV-8], for which the “Insecticidal activity (mortality rate grade) Aphiscraccivora” value is reported as 9 (90˜100%).
Regarding `CCC(=O)N1N=C(C)CN(N=Cc2ccc[n+](CCCCS(=O)(=O)[O-])c2)C1=O` [IV-9], the “Insecticidal activity (mortality rate grade) Aphiscraccivora” value is 7 (70˜90%).

Still in this data set, the particulars now being: 500 mg/L test solution.
Regarding `CCC(=O)N1N=C(C)CN(N=Cc2ccc[n+](CCCS(=O)(=O)[O-])c2)C1=O` [IV-5], the “Insecticidal activity (mortality rate grade) Aphiscraccivora” value is 9 (90˜100%).
Regarding `CC(=O)N1N=C(C)CN(N=Cc2ccc[n+](CC=CS(=O)(=O)[O-])c2)C1=O` [IV-6], the “Insecticidal activity (mortality rate grade) Aphiscraccivora” value is given as 9 (90˜100%).
`CCC(=O)N1N=C(C)CN(N=Cc2ccc[n+](CC=CS(=O)(=O)[O-])c2)C1=O` [IV-7]: the “Insecticidal activity (mortality rate grade) Aphiscraccivora” value is on record as 9 (90˜100%).
In the case of `CC(=O)N1N=C(C)CN(N=Cc2ccc[n+](CCCCS(=O)(=O)[O-])c2)C1=O` [IV-8], the “Insecticidal activity (mortality rate grade) Aphiscraccivora” value is given as 9 (90˜100%).
With `CCC(=O)N1N=C(C)CN(N=Cc2ccc[n+](CCCCS(=O)(=O)[O-])c2)C1=O` [IV-9], the “Insecticidal activity (mortality rate grade) Aphiscraccivora” value is 9 (90˜100%).
